Assay results taken from publication PMC7156724, “Potent BRD4 inhibitor suppresses cancer cell-macrophage interaction” (Nature Communications, 2020).
Values joined by “and” are separate entries in the source; they are usually repeats but may differ in a detail not shown here. Identical values can stand only once.

Assays:
[1] = tested on: MDA-MB231 cells; test: Clonogenic (colony formation) assay, MDA-MB231; assay type: cell-based, human; conditions: MDA-MB231, 250 nM, 5 days
Experimental: (§1) Fig. 2 NHWD-870 inhibited BRD4 phosphorylation and c-MYC expression, and suppressed cell growth. a Representative western blot analysis of p-BRD4 (s484/488), BRD4, c-MYC, and GAPDH after treatment of MDA-MB231, SUM159, A2780 ES-2, and H526 cells with JQ-1 or NHWD-870 at the indicated concentrations for 24 h. GAPDH served as the loading control. Selected from three independent experiments. b MTT assays of H526, A2780, ES-2, and MDA-MB231 cells treated with JQ-1 or NHWD-870 at the indicated concentrations for 5 days. Data are presented as mean ± SEM from three independent experiments. c, d Clonogenic assays of H526, A2780, ES-2 and MDA-MB231 cells treated with 250 nM JQ-1 or NHWD-870 for 5 days. Shown are representative images (c) and quantification of colonies (d). […] Shown are representative images (e) and quantification of relative colony sizes (f). Scale bar, 50 μm. Data are presented as mean ± SEM from five independent experiments. p values were calculated using two-tailed, unpaired t tests in this figure. **p < 0.01; ***p < 0.001. Source data are provided as a Source Data file. […]
(§2) 5. Colony formation assay. Cells were seeded in 6-well plates at 3,000 cells/well […]
(§3) every week. […] Colony numbers were calculated with imageJ version

[2] = tested on: BRD4 binding to the HIF1α promoter; parameters: method as in PMID 30224758, PMID 29054992; conditions: MDA-MB 231 cells ref 45, 46; cited from earlier work
[3] = tested on: H526 cells; test: Clonogenic (colony formation) assay, H526; assay type: cell-based, human; conditions: H526, 250 nM, 5 days
Experimental: as §1, §2, §3

[4] = tested on: ES-2 cells; test: Clonogenic (colony formation) assay, ES-2; assay type: cell-based, human; conditions: ES-2, 250 nM, 5 days
Experimental: as §1, §2, §3

[5] = tested on: NCI-H211 small cell lung cancer (SCLC) cells; test: AlamarBlue assay, NCI-H211; assay type: cell-based; conditions: for Cellular activity in SCLCs (H211), alamarBlue: Fig.1e, replicates
Experimental: (§4) 3. AlamarBlue assay. AlamarBlue was made by resazurin sodium salt (Sigma, Cat
(§5) # 199303) dissolved in PBS.
(§6) NCI-H211, MDA-MB231 and A375 cells were plated in 96-well plates at approximately 30% confluence and left overnight to adhere. In the following day, […]
(§7) of treatment, 10 μl AlamarBlue reagent (0.3 mg/ml) was added to each well, and after 18h, the florescence intensity in each well was measured using a top-reading fluorescent plate reader with excitation at 530 nm and emission at 590 nm. […]

[6] = tested on: phosphorylated BRD4 and c-MYC; test: Western blot of p-BRD4, BRD4 and c-MYC in solid tumor cell lines; assay type: cell-based, human; conditions: 50 nM, 24 h
Experimental: as §1
4. Protein extraction and w estern blot anal ysis. Freshly dissected unfixed tissue was homogenized in lysis buffer. The lysates were centrifuged at 13,000g for 10 minutes at 4°C. Supernatants were collected and determined with a Bradford Protein Assay kit (Bio-Rad, Hercules, CA). The cell lysates were subjected to SDS-PAGE followed by immunoblotting (Immobilon P; Millipore, Milford, MA) with specific antibodies followed by detection using an enhanced chemilumine scence kit (Amersham Life Science, Arlington Heights, IL). […]

[7] = tested on: A2780 cells; test: Clonogenic (colony formation) assay, A2780; assay type: cell-based, human; conditions: A2780, 250 nM, 5 days
Experimental: as §1, §2, §3

[8] = tested on: MDA-MB231 triple negative breast cancer (TNBC) cells; test: AlamarBlue assay, MDA-MB231; assay type: cell-based, human; conditions: for Cellular activity in TNBCs (MDA-MB231), alamarBlue: Fig.1f, replicates
Experimental: as §4, §5, §6, §7

## Cc1sc2c(c1C)C(c1ccc(Cl)cc1)=N[C@@H](CC(=O)OC(C)(C)C)c1nnc(C)n1-2 [JQ1, reference compound]
[1]
  Clone Number (clonogenic assay): 1294 and 1205 and 1074 and 1155 and 1020
[2]
  BRD4 binding to the HIF1α promoter (ChIP-seq): reduced BRD4 binding to the HIF1α promoter
[3]
  Clone Number (clonogenic assay): 627 and 705 and 686 and 632 and 603
[4]
  Clone Number (clonogenic assay): 575 and 505 and 619 and 501 and 621
[5]; 72 h treatment, nM, read-out: IC50, cellular activity in NCI-H211 (alamarBlue)
  IC50: 102 nM
[5]; concentration 0.0169701
  Cellular activity in SCLCs (H211), alamarBlue: 8.89 and 26.86
[5]; concentration 0.0398488
  Cellular activity in SCLCs (H211), alamarBlue: 1.52 and 21.49
[5]; concentration 0.137272
  Cellular activity in SCLCs (H211), alamarBlue: 0.75 and 21.87
[5]; concentration 0.614394
  Cellular activity in SCLCs (H211), alamarBlue: 3.74 and 1.29
[5]; concentration 1.09152
  Cellular activity in SCLCs (H211), alamarBlue: 4.01 and 4.44
[5]; concentration 1.56864
  Cellular activity in SCLCs (H211), alamarBlue: 8.74 and 4.85
[5]; concentration 2.04576
  Cellular activity in SCLCs (H211), alamarBlue: 60.7 and 49.9
[5]; concentration 3
  Cellular activity in SCLCs (H211), alamarBlue: 94.26 and 94.75
[5]; concentration column prints 2.52288
  Cellular activity in SCLCs (H211), alamarBlue: 94.02 and 94.2
[6]
  effect on phosphorylated BRD4 and c-MYC (western blot): no effect
[7]
  Clone Number (clonogenic assay): 839 and 794 and 803 and 802 and 753
[8]; 72 h treatment, nM, read-out: IC50, cellular activity in MDA-MB231 (alamarBlue)
  IC50: 65 nM
[8]; concentration 0.15
  Cellular activity in TNBCs (MDA-MB231), alamarBlue: 0.75 and 21.87
[8]; concentration 0.6
  Cellular activity in TNBCs (MDA-MB231), alamarBlue: 3.74 and 1.29
[8]; concentration 1
  Cellular activity in TNBCs (MDA-MB231), alamarBlue: 19.01 and 19.44
[8]; concentration 1.5
  Cellular activity in TNBCs (MDA-MB231), alamarBlue: 38.74 and 34.85
[8]; concentration 2
  Cellular activity in TNBCs (MDA-MB231), alamarBlue: 60.7 and 49.9
[8]; concentration 2.5
  Cellular activity in TNBCs (MDA-MB231), alamarBlue: 94.02 and 94.2
[8]; concentration 3
  Cellular activity in TNBCs (MDA-MB231), alamarBlue: 94.26 and 94.75
[8]; concentration -0.3
  Cellular activity in TNBCs (MDA-MB231), alamarBlue: 1.52 and 21.49
[8]; concentration -0.9
  Cellular activity in TNBCs (MDA-MB231), alamarBlue: 8.89 and 26.86
